What was measured:
IRAK1 = IRAK1 (Homo sapiens (Human), UniProt P51617); experiment: Adapta Universal Kinase Assay (ThermoFisher) against IRAK1; type: biochemical; details: IRAK1/Histone H3 (1-20) peptide, 60 minutes at room temperature
Protocol: To measure the IC50 values of the compounds herein against IRAK1, the Adapta Universal Kinase Assay (ThermoFisher) was used. Briefly, 100 nL of different concentrations of the compounds in 100% DMSO were added to each well of a 384-well plate (Corning Cat. #4512). 2.4 μL of 30 mM HEPES, 2.5 μL of 4×ATP solution (in water), and 5 μL of 2× IRAK1/Histone H3 (1-20) peptide mixture (prepared in 50 mM HEPES pH 7.5, 0.01% BRIJ-35, 10 mM MgCl2, 1 mM EGTA) were added to each well. The plate was shaken for 30 seconds and centrifuged for 1 minute at 1000×g. The plate was then incubated at room temperature for 60 minutes. 5 μL of Detection Mix was added to each well. The plate was shaken for 30 seconds and centrifuged for 1 minute at 1000×g. The plate was then incubated at room temperature for 60 minutes. The plate was subsequently read on a fluorescence plate reader, and the emissions ratio was calculated to determine the ratio of ATP to ADP. Emissions Ratio=AF647 Emission (665 nm)/Europium Emission (615 nm).

IRAK4 = IRAK4 (Homo sapiens (Human), UniProt Q9NWZ3); experiment: Z'-LYTE assay (ThermoFisher) against IRAK4; type: biochemical; details: IRAK4/Ser/Thr 07, 60 minutes at room temperature
Chain of IRAK4 (Q9NWZ3 whole entry): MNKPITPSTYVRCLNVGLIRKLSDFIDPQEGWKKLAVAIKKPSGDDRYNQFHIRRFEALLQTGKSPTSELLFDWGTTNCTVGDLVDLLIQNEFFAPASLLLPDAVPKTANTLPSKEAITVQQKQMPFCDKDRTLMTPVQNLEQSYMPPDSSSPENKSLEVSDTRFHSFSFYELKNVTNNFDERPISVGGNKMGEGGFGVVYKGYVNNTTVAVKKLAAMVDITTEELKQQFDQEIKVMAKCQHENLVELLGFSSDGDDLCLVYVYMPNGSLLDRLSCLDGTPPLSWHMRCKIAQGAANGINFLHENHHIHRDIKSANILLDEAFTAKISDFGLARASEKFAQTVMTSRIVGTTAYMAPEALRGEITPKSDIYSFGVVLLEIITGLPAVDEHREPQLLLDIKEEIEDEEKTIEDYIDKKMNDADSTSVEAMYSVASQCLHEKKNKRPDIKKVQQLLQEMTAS
Protocol: To measure the 050 values of compounds herein against IRAK4, a Z′-LYTE assay (ThermoFisher) was used. Briefly, 2.5 μL. of different concentrations of the compounds in 1% DMSO were added to 2.4 μL kinase buffer (50 mM HEPES pH 7.5, 0.01% BRIJ-35, 10 mM MgCl2, 1 mM EGTA) in each well of a 384-well plate (Corning Cat. #3676). 5 μL of 2×IRAK4/Ser/Thr 07 mixture (prepared in 50 mM HEPES pH 7.5, 0.01% BRIJ-35, 10 mM MnCl2, 2 mM OTT, and 0.02% NaN3) and 2.5 μL of 4×ATP solution (4×ATP, 50 mM HEPES, pH 7.5, 0.01% BRIJ-35, 10 mM MgCl2, 1 mM EGTA) were added to each well. The plate was shaken for 30 seconds, and then incubated at room temperature for 60 minutes. 5 μL of a 1:100000 dilution of Development Reagent A was added to each well. The plate was shaken for 30 seconds and incubated for 60 minutes at room temperature. The plate was subsequently read on a fluorescence plate reader, and the emissions ratio was calculated to determine the ratio of Ser/Thr 07 phosphorylated by the reaction. Emissions Ratio=Coumarin Emission (443 nm)/Flourescein Emission (520 nm).

Chain of IRAK1 (P51617 whole entry): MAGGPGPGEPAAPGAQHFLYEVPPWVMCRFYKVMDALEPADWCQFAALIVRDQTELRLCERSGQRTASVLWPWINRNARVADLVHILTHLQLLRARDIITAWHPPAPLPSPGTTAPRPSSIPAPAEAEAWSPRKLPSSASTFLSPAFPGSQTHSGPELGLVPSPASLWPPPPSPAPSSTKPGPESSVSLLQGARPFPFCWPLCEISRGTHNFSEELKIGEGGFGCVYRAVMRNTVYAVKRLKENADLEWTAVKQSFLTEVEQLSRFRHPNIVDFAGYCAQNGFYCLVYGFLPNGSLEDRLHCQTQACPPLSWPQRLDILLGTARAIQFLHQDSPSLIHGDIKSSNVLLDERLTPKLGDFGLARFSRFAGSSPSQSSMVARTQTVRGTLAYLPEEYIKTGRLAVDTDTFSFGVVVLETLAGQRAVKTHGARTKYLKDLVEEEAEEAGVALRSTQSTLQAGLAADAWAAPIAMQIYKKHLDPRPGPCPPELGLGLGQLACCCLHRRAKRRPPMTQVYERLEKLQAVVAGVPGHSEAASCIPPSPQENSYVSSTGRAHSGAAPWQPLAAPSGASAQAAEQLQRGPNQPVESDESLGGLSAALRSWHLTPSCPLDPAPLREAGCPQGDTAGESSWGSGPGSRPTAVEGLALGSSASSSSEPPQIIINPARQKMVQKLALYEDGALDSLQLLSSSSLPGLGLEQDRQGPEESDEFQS

Row | SMILES | IC50 (IRAK1) | IC50 (IRAK4)
1 | C=CC(=O)N[C@@H]1CCCC(C(=O)Nc2ccc(NC(=O)c3cccc(-c4ccn[nH]4)n3)cc2F)C1 (stereo partly shown) [Compound 001] | 0.129 µM | > 10 µM
2 | C=CC(=O)N[C@@H]1CCC[C@H](C(=O)Nc2ccc(NC(=O)c3cccc(-c4ccn[nH]4)n3)nc2)C1 [Compound 002, N-(5-((1S,3R)-3-acrylamidocyclohexane-1-carboxamido)pyridin-2-yl)-6-(1H-pyrazol-5-yl)-picolinamide] | 0.257 µM | > 10 µM
3 | C=CC(=O)N[C@@H]1CCCC(C(=O)Nc2ccc(NC(=O)c3cccc(-c4ccn[nH]4)n3)cc2C)C1 (stereo partly shown) [Compound 003] | 0.671 µM | > 10 µM
4 | C=CC(=O)N[C@H]1CCCC(C(=O)Nc2ccc(NC(=O)c3cccc(-c4ccn[nH]4)n3)nc2)C1 (stereo partly shown) [Compound 005] | 0.189 µM | > 10 µM
5 | C=CC(=O)N[C@@H]1CNC[C@H](C(=O)Nc2ccc(NC(=O)c3cccc(-c4ccn[nH]4)n3)nc2)C1 [Compound 006, N-(5-((3R,5S)-5-acrylamidopiperidine-3-carboxamido)pyridin-2-yl)-6-(1H-pyrazol-5-yl)-picolinamide] | 0.014 µM | 4 µM
6 | C=CC(=O)N[C@@H]1CNCC(C(=O)Nc2ccc(NC(=O)c3cccc(-c4ccn[nH]4)n3)cc2F)C1 (stereo partly shown) [Compound 007] | 0.15 µM | > 10 µM
7 | C=CC(=O)N[C@H]1C[C@@H](C(=O)Nc2ccc(NC(=O)c3cccc(-c4ccn[nH]4)n3)nc2)CN(C)C1 [Compound 013, N-(5-((3R,5S)-5-acrylamido-1-methylpiperidine-3-carboxamido)pyridin-2-yl)-6-(1H-pyrazol-5-yl)picolinamide] | 0.0185 µM | > 10 µM
8 | C=CC(=O)NC12CC(C(=O)Nc3ccc(NC(=O)c4cccc(-c5ccn[nH]5)n4)cc3F)(C1)C2 [Compound 016] | 0.301 µM | 9.93 µM
9 | C=CC(=O)N1CC2(CC(n3cc(-c4ccc(NC(=O)c5cccc(-c6cnoc6)n5)nc4)nn3)C2)C1 [Compound 024, N-(5-(1-(2-acryloyl-2-azaspiro[3,3]heptan-6-yl)-1H-1,2,3-triazol-4-yl)pyridin-2-yl)-6-(isoxazol-4-yl)picolinamide] | 0.612 µM | 3.33 µM
10 | C=CC(=O)N[C@@H]1CCC[C@H](C(=O)Nc2ccc(NC(=O)c3cccc(-c4ccn[nH]4)n3)cc2)C1 [Compound 026, N-(4-((1 S,3R)-3-acrylamidocyclohexane-1-carboxamido)phenyl)-6-(1H-pyrazol-5-yl)-picolinamide] | 0.0681 µM | > 10 µM
11 | C=CC(=O)N1CCC[C@H](C(=O)Nc2ccc(NC(=O)c3cccc(-c4ccn[nH]4)n3)nc2)C1 [Compound 027, (S)-N-(5-(1-acryloylpiperidine-3-carboxamido)pyridin-2-yl)-6-(1H-pyrazol-5-yl)picolinamide] | 0.00637 µM | 1.87 µM
12 | C=CC(=O)N1CCC[C@@H](C(=O)Nc2ccc(NC(=O)c3cccc(-c4ccn[nH]4)n3)nc2)C1 [Compound 028, (R)-N-(5-(1-acryloylpiperidine-3-carboxamido)pyridin-2-yl)-6-(1H-pyrazol-5-yl)picolinamide] | 0.0125 µM | 0.722 µM
13 | C=CC(=O)N1CCC[C@H](C(=O)Nc2ccc(NC(=O)c3cccc(-c4cnoc4)n3)nc2)C1 [Compound 029, (S)-N-(5-(1-acryloylpiperidine-3-carboxamido)pyridin-2-yl)-6-(isoxazol-4-yl)picolinamide] | 0.658 µM | > 10 µM
14 | C=CC(=O)N1CCC[C@@H](C(=O)Nc2ccc(NC(=O)c3cccc(-c4cnoc4)n3)nc2)C1 [Compound 030, (R)-N-(5-(1-acryloylpiperidine-3-carboxamido)pyridin-2-yl)-6-(isoxazol-4-yl)picolinamide] | 0.399 µM | 3.33 µM
15 | C=CC(=O)N1CCC[C@H](C(=O)Nc2ccc(NC(=O)c3cccc(-c4ccn[nH]4)n3)cc2F)C1 [Compound 031, (S)-N-(4-(1-acryloylpiperidine-3-carboxamido)-3-fluorophenyl)-6-(1H-pyrazol-5-yl)picolinamide] | 0.0401 µM | 1.11 µM
16 | C=CC(=O)N1CCC[C@H](C(=O)Nc2ccc(NC(=O)c3cccc(-c4cnoc4)n3)cc2F)C1 [Compound 032, (S)-N-(4-(1-acryloylpiperidine-3-carboxamido)-3-fluorophenyl)-6-(isoxazol-4-yl)picolinamide] | 1.19 µM | > 10 µM
17 | C=CC(=O)N1CCC[C@@H](C(=O)Nc2ccc(NC(=O)c3cccc(-c4ccn[nH]4)n3)cc2F)C1 [Compound 033, (R)-N-(4-(1 acryloylpiperidine-3-carboxamido)-3-fluorophenyl)-6-(1H-pyrazol-5-yl)picolinamide] | 0.0742 µM | 2.51 µM
18 | C=CC(=O)N1CCC[C@@H](C(=O)Nc2ccc(NC(=O)c3cccc(-c4cnoc4)n3)cc2F)C1 [Compound 034, (R)-N-(4-(1-acryloylpiperidine-3-carboxamido)-3-fluorophenyl)66-(isoxazol-4-yl)picolinamide] | 0.344 µM | 2.01 µM
19 | C=CC(=O)N[C@H]1C[C@@H](C(=O)Nc2ccc(NC(=O)c3cccc(-c4ccn[nH]4)n3)nc2)CN(CC(F)(F)F)C1 [Compound 038, N-(5-((3R,5S)-5-acrylamido-1-(2,2,2-trifluoroethyl)piperidine-3-carboxamido)pyridin-2-yl)-6-(1H-pyrazol-5-yl)picolinamide] | 0.0121 µM | > 10 µM
20 | C=CC(=O)N[C@H]1C[C@@H](C(=O)Nc2ccc(NC(=O)c3cccc(-c4ccn[nH]4)n3)nc2)CN(CC(F)F)C1 [Compound 039, N-(5-((3R,5S)-5-acrylamido-1-(2,2-difluorethyl)piperidine-3-carboxamido)pyridin-2-yl)-6-(1H-pyrazol-5-yl)picolinamide] | 0.0149 µM | > 10 µM

— patent US20240043405A1, “POTENT AND SELECTIVE IRREVERSIBLE INHIBITORS OF IRAK1” (Dana-Farber Cancer Institute, Inc., priority 2020, published 2024)
